Results taken from patent US4251546A, “Process for killing internal helminths using certain 1,1-bis-(2-substituted-3-nitrophenyl)alkane or alkylene derivatives” (ICI Australia Limited, priority 1977, dated 1981).

Tests used:
[1] = test system: sheep liver fluke (Fasciola hepatica); experiment: Fluke egg count in faeces and adult fluke count in liver of infected sheep after a single s/c dose (Table 3); format: in vivo; details: for POST MORTEM RESULT No. of adult fluke: liver
Description: Compositions suitable for use as experimental injectable solutions were prepared by formulating the compounds as solutions of their salts either in water or in a mixture of water and ethylene glycol or water and polyethylene glycol (PEG200).
Compositions prepared by the method of Example 10 were used as a single dose to test sheep infected with sheep liver fluke (Fasciola hepatica). The number of liver fluke eggs in the faeces was measured at the time of treatment and at selected intervals up to 30 days after treatment. The sheep were killed and the number of adult fluke in the liver counted. The amount and structure of the active ingredient in each composition and the results of treatment of a sheep with that composition are given in the Table 3 below. The compositions were administered by sub-cutaneous injection (s/c).

immature fluke = experiment: Effectiveness against immature fluke (Table 3 footnotes); format: in vivo, Fasciola hepatica; details: 15 mg/kg

O=[N+]([O-])c1cc(Cl)cc(C(c2cc(Cl)cc([N+](=O)[O-])c2O)C(F)(F)C(F)(F)F)c1O [Compound 54]
FAECAL EGG COUNT, day 7 ([1]; single dose 2.0 mg/kg): 10 Eggs/g faeces | FAECAL EGG COUNT, day 14 ([1]; single dose 2.0 mg/kg): 0 Eggs/g faeces | POST MORTEM RESULT No. of adult fluke ([1]; single dose 2.0 mg/kg): 0 | FAECAL EGG COUNT, day 7 ([1]; single dose 6.0 mg/kg): 0 Eggs/g faeces | FAECAL EGG COUNT, day 14 ([1]; single dose 6.0 mg/kg): 0 Eggs/g faeces | POST MORTEM RESULT No. of adult fluke ([1]; single dose 6.0 mg/kg): 0 | effective against immature fluke (immature fluke): 83%
